In US20220315567A1 (priority 2016, published 2022):
Like-named read-outs stand apart in the source and are kept apart here.

How the values were obtained:
human OPRM1 (μ, MOR) [1] = molecular target: T1, human OPRM1 (μ, MOR) (Homo sapiens, UniProt P35372); test: cell-based; conditions: for Emax: OPRM1, read-out: cAMP Emax; for EC50: PathHunter human OPRM1 Arrestin CHO-K1 cell line, read-out: cAMP EC50
T1 construct: host or cells: CHO-K1
Protocol: G-protein signaling was measured via second messenger cAMP modulation. Detection of cAMP modulation was accomplished in the PathHunter human OPRM1 (μ, MOR) Arrestin CHO-K1 cell line using the Dynamic2 cAMP Kit from Cisbio.

human OPRM1 (μ, MOR) [2] = molecular target: T1, human OPRM1 (μ, MOR); test: cell-based; conditions: for Emax: OPRM1, read-out: β-Arrestin Emax; for EC50: PathHunter human OPRM1 Arrestin CHO-K1 cell line, read-out: β-Arrestin EC50
Protocol: The Discoverx PathHunter® β-Arrestin assay is used to measure β-arrestin-2 activity. The technology is based on Enzyme Fragment Complementation (EFC) with β-galactosidase (β-Gal) as the reporter. […] EA is fused to Q-arrestin-2, and ED is fused to the C-terminus of the GPCR of interest. When a ligand binds and the GPCR is activated, Q-arrestin-2 is recruited to the receptor resulting in an ED/EA complementation, restoring f-Gal activity, which is measured using chemiluminescence. For this assay, the PathHunter human OPRM1 (μ, MOR) Arrestin CHO-K1 cell line was used.

human OPRM1 (μ, MOR) [3] = molecular target: T1, human OPRM1 (μ, MOR); assay type: cell-based; conditions: for ΔRA of compound: relative activity from EC50 and Emax of β-arrestin vs cAMP, lower RA = more G-protein biased
Protocol: In certain embodiments, the ability of a compound to activate G-protein or β-arrestin is not an on/off switch for a given pathway, but rather a continuous function. To capture this, each compound is measured for activity in cell assays that are linked to β-arrestin recruitment and G-protein signaling. By comparing the activity between these two measures (accounting for both EC50 and maximal response reached, Emax) a relative activity (RA) value is determined.
In the case of MOR it is desirable to have high activation of the G-protein pathway while reducing activation of β-arrestin. In the case of the formula above, this means a lower RA.

T1 sequence (P35372 whole entry): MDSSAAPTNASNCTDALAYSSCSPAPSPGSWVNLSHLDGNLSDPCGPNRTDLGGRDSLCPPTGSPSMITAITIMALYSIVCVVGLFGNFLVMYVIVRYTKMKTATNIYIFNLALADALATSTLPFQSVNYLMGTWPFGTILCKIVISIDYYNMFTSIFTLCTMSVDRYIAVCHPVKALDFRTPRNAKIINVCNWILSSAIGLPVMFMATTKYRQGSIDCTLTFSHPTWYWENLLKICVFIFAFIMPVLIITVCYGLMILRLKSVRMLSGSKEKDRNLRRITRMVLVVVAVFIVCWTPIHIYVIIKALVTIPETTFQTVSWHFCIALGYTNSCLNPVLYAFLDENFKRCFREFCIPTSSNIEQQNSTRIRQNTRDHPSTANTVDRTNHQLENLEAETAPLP

Row | Structure (SMILES) | Emax (human OPRM1 (μ, MOR) [1]) [%] | EC50 (human OPRM1 (μ, MOR) [1]) [nM] | Emax (human OPRM1 (μ, MOR) [2]) [%] | EC50 (human OPRM1 (μ, MOR) [2]) [nM] | Bias Factor (ΔRA of compound relative to ΔRA of DAMGO) × 10 (human OPRM1 (μ, MOR) [3]) | ΔRA of compound (human OPRM1 (μ, MOR) [3]) | cAMP Emax (human OPRM1 (μ, MOR) [1]) [%] | β-Arrestin Emax (human OPRM1 (μ, MOR) [2]) [%]
1 | COc1ccc(C(CNC(=O)N2CC[C@@H](c3ccccc3)C2)N(C)C)cc1 (stereo partly drawn) [Compound 42] | 21.9 | 7430 | < 1 | > 100000 | <−14.83 | <−2.96 |  | 
2 | COc1ccc(C(CNC(=O)N2CC[C@H](c3ccccc3)C2)N(C)C)cc1 (stereo partly drawn) [Compound 43] | 54.2 | 1720 | < 1 | > 100000 | <−14.83 | <−2.96 |  | 
3 | CN(C)C(CNC(=O)N(C)[C@@H]1CCCc2ccccc21)c1ccsc1 (stereo partly drawn) [Compound 45] | 101 | 276 | 8.1 | > 100000 | <−14.83 | <−2.96 |  | 
4 | CN(C)C1(CNC(=O)N2Cc3ccc(F)cc3C2)CCCCC1 [Compound 46] | 109 | 522 | 13.6 | 10100 | −7.08 | −2.19 |  | 
5 | CN(C)C(CNC(=O)N1CCCc2ccc(O)cc21)c1ccsc1 (stereo not drawn) [Compound 49] | 97 | 998 | < 1 | > 100000 | <−14.83 | <−2.96 |  | 
6 | CN(C)C(CNC(=O)N[C@@H]1CCc2ccc(O)cc2C1)c1ccsc1 (stereo partly drawn) [Compound 50] | 48.3 | 36 | < 1 | > 100000 | <−14.83 | <−2.96 |  | 
7 | CN(C)C(CNC(=O)N[C@H]1CCc2ccccc2C1)c1ccsc1 (stereo partly drawn) [Compound 51] |  | 29 |  | > 100000 | <−14.83 | <−2.96 | 64.9 | <1
8 | CN(C)C(CNC(=O)N[C@H]1CCc2ccccc2C1)c1ccsc1 (stereo partly drawn) [Compound 52] |  | 227 |  | > 100000 | <−14.83 | <−2.96 | 12.2 | <1
9 | CN(C)C(CNC(=O)NC1CCCc2c(O)cccc21)c1ccsc1 (stereo not drawn) [Compound 59] | 108 | 6 | 61 | 160 | −1.95 | −1.67 |  | 
10 | CN(C)C(CNC(=O)N[C@H]1CCc2ccc(O)cc2C1)c1ccsc1 (stereo partly drawn) [Compound 60] | 27.5 | 676 | < 1 | > 100000 | <−14.83 | <−2.96 |  | 
11 | CN(C)C1(CNC(=O)N2Cc3ccc(F)cc3C2)CCCC1 [Compound 63] | 87.9 | 2510 | < 1 | > 100000 | <−14.83 | <−2.96 |  | 
12 | CN(C)C1(CNC(=O)N2Cc3ccccc3C2)CCCC1 [Compound 64] | 88.7 | 2150 | < 1 | > 100000 | <−14.83 | <−2.96 |  | 
13 | CN(C)C(CNC(=O)N1CCCc2ccccc21)c1ccccc1 (stereo not drawn) [Compound 69a] | 110 | 563 | 8 | 8560 | −8.38 | −2.32 |  | 
14 | CN(C)C(CNC(=O)N1CCCc2cc(F)ccc21)c1ccccc1 (stereo not drawn) [Compound 70a] | 90.3 | 512 | 5.3 | 11000 | −10.82 | −2.56 |  | 
